Reference: ChEMBL document CHEMBL1201861, “Genomics of Drug Sensitity in Cancer screening data, Wellcome Trust Sanger Institute”

Assays:
Assay in all cases: cells
NB5 = format: functional, cell-based, Homo sapiens; details: Homo sapiens, NB5;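 further: growth inhibition of NB5 cells, read out as cell viability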
Description: SANGER: Inhibition of human NB5 cell growth in a cell viability assay.

SK-PN-DW = format: functional, cell-based; details: Homo sapiens;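 further: growth inhibition measured with a viability assay on these cells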
Description: SANGER: Inhibition of human SK-PN-DW cell growth in a cell viability assay.

Capan-2 = format: functional, cell-based, Homo sapiens; details: Homo sapiens, Capan-2;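 further: Capan-2 cell growth inhibition, read out with a viability assay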
Description: SANGER: Inhibition of human Capan-2 cell growth in a cell viability assay.

NCI-H1563 = format: functional, cell-based, Homo sapiens; details: Homo sapiens, NCI-H1563;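 further: growth inhibition of human NCI-H1563 cells, read out with a cell viability assay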
Description: SANGER: Inhibition of human NCI-H1563 cell growth in a cell viability assay.

ETK-1 = format: functional, cell-based, Homo sapiens; details: Homo sapiens, ETK-1;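 further: growth inhibition of human ETK-1 cells, read out with a cell viability assay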
Description: SANGER: Inhibition of human ETK-1 cell growth in a cell viability assay.

NUGC-3 = format: functional, cell-based, Homo sapiens; details: Homo sapiens, NUGC-3;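 further: growth inhibition of human NUGC-3 cells, read out with a cell viability assay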
Description: SANGER: Inhibition of human NUGC-3 cell growth in a cell viability assay.

D283 Med = format: functional, cell-based, Homo sapiens; details: Homo sapiens, D283 Med
Description: SANGER: Inhibition of human D-283MED cell growth in a cell viability assay.

HH = format: functional, cell-based; details: Homo sapiens
Description: SANGER: Inhibition of human HH cell growth in a cell viability assay.

A3-KAW = format: functional, cell-based; details: Homo sapiens;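 further: growth inhibition of human A3-KAW cells, read out with a cell viability assay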
Description: SANGER: Inhibition of human A3-KAW cell growth in a cell viability assay.

NB12 = format: functional, cell-based, Homo sapiens; details: Homo sapiens, NB12;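 further: growth inhibition of human NB12 cells, read out by a cell viability assay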
Description: SANGER: Inhibition of human NB12 cell growth in a cell viability assay.

A2780 = format: functional, cell-based, Homo sapiens; details: Homo sapiens, A2780;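 further: growth inhibition of A2780 cells, read out with a cell viability assay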
Description: SANGER: Inhibition of human A2780 cell growth in a cell viability assay.

NCI-H520 = format: functional, cell-based, Homo sapiens; details: Homo sapiens, NCI-H520;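 further: growth inhibition of NCI-H520 cells, measured by a cell viability assay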
Description: SANGER: Inhibition of human NCI-H520 cell growth in a cell viability assay.

HCC1569 = format: functional, cell-based, Homo sapiens; details: Homo sapiens, HCC1569;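 further: growth inhibition of human HCC1569 cells, read out with a cell viability assay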
Description: SANGER: Inhibition of human HCC1569 cell growth in a cell viability assay.

SK-OV-3 = format: functional, cell-based, Homo sapiens; details: Homo sapiens, SK-OV-3;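 further: growth inhibition of SK-OV-3 human cells, read out with a cell viability assay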
Description: SANGER: Inhibition of human SK-OV-3 cell growth in a cell viability assay.

GOTO = format: functional, cell-based, Homo sapiens; details: Homo sapiens, GOTO;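 further: growth inhibition of GOTO cells, read out by a cell viability assay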
Description: SANGER: Inhibition of human GOTO cell growth in a cell viability assay.

SCC-4 = format: functional, cell-based, Homo sapiens; details: Homo sapiens, SCC-4;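 further: growth inhibition of human SCC-4 cells, read out as cell viability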
Description: SANGER: Inhibition of human SCC-4 cell growth in a cell viability assay.

KYSE-450 = format: functional, cell-based; details: Homo sapiens;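 further: cell growth inhibition measured by a viability assay in human KYSE-450 cells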
Description: SANGER: Inhibition of human KYSE-450 cell growth in a cell viability assay.

LK-2 = format: functional, cell-based, Homo sapiens; details: Homo sapiens, LK-2;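 further: growth inhibition of LK-2 cells, read out with a viability assay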
Description: SANGER: Inhibition of human LK-2 cell growth in a cell viability assay.

NB14 = format: functional, cell-based; details: Homo sapiens;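 further: growth inhibition of NB14 cells measured with a cell viability assay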
Description: SANGER: Inhibition of human NB14 cell growth in a cell viability assay.

Ramos-2G6-4C10 = format: functional, cell-based; details: Homo sapiens;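 further: growth inhibition of the cell line, measured by a cell viability read-out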
Description: SANGER: Inhibition of human Ramos-2G6-4C10 cell growth in a cell viability assay.

LB373-MEL-D = format: functional, cell-based, Homo sapiens; details: Homo sapiens, LB373-MEL-D;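 further: growth inhibition of the cell line, read out in a cell viability assay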
Description: SANGER: Inhibition of human LB373-MEL-D cell growth in a cell viability assay.

RH-1 = format: functional, cell-based, Homo sapiens; details: Homo sapiens, RH-1;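 further: growth inhibition of human RH-1 cells, read out with a cell viability assay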
Description: SANGER: Inhibition of human RH-1 cell growth in a cell viability assay.

LB771-HNC = format: functional, cell-based, Homo sapiens; details: Homo sapiens, LB771-HNC;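 further: growth inhibition of LB771-HNC human cells, read out with a cell viability assay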
Description: SANGER: Inhibition of human LB771-HNC cell growth in a cell viability assay.

EFO-27 = format: functional, cell-based, Homo sapiens; details: Homo sapiens, EFO-27;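 further: growth inhibition of EFO-27 cells, read out with a cell viability assay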
Description: SANGER: Inhibition of human EFO-27 cell growth in a cell viability assay.

Ca-Ski = format: functional, cell-based; details: Homo sapiens;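 further: cell viability assay measuring inhibition of Ca-Ski cell growth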
Description: SANGER: Inhibition of human Ca-Ski cell growth in a cell viability assay.

TYK-nu = format: functional, cell-based, Homo sapiens; details: Homo sapiens, TYK-nu;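 further: growth inhibition of human TYK-nu cells, read out by a cell viability assay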
Description: SANGER: Inhibition of human TYK-nu cell growth in a cell viability assay.

CAMA-1 = format: functional, cell-based, Homo sapiens; details: Homo sapiens, CAMA-1;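 further: growth inhibition of CAMA-1 cells, read out with a cell viability assay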
Description: SANGER: Inhibition of human CAMA-1 cell growth in a cell viability assay.

ACN = format: functional, cell-based, Homo sapiens; details: Homo sapiens, ACN;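 further: growth inhibition of the human ACN cell line, read out via cell viability testing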
Description: SANGER: Inhibition of human ACN cell growth in a cell viability assay.

BHT-101 = format: functional, cell-based, Homo sapiens; details: Homo sapiens, BHT-101
Description: SANGER: Inhibition of human BHT-101 cell growth in a cell viability assay.

HCC70 = format: functional, cell-based, Homo sapiens; details: Homo sapiens, HCC70;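 further: cell viability assay measuring how strongly the compound suppresses proliferation of HCC70 cells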
Description: SANGER: Inhibition of human HCC70 cell growth in a cell viability assay.

NH-12 = format: functional, cell-based, Homo sapiens; details: Homo sapiens, NH-12;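 further: growth inhibition of NH-12 cells, read out with a cell viability assay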
Description: SANGER: Inhibition of human NH-12 cell growth in a cell viability assay.

ES5 = format: functional, cell-based, Homo sapiens; details: Homo sapiens, ES5;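 further: growth inhibition of human ES5 cells, read out by a cell viability assay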
Description: SANGER: Inhibition of human ES5 cell growth in a cell viability assay.

VMRC-RCZ = format: functional, cell-based; details: Homo sapiens;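 further: growth inhibition measured with a cell viability assay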
Description: SANGER: Inhibition of human VMRC-RCZ cell growth in a cell viability assay.

BE-13 = format: functional, cell-based; details: Homo sapiens;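 further: growth inhibition of human BE-13 cells, measured with a cell viability assay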
Description: SANGER: Inhibition of human BE-13 cell growth in a cell viability assay.

WM-115 = format: functional, cell-based, Homo sapiens; details: Homo sapiens, WM-115
Description: SANGER: Inhibition of human WM-115 cell growth in a cell viability assay.

U2OS = format: functional, cell-based, Homo sapiens, U-2-OS; details: Homo sapiens, U2OS;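 further: growth inhibition of human U-2-OS cells, determined with a cell viability assay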
Description: SANGER: Inhibition of human U-2-OS cell growth in a cell viability assay.

TGBC24TKB = format: functional, cell-based, Homo sapiens; details: Homo sapiens, TGBC24TKB;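 further: growth inhibition of human TGBC24TKB cells, read out with a cell viability assay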
Description: SANGER: Inhibition of human TGBC24TKB cell growth in a cell viability assay.

HC-1 = format: functional, cell-based; details: Homo sapiens;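 further: growth inhibition of HC-1 cells measured by a cell viability assay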
Description: SANGER: Inhibition of human HC-1 cell growth in a cell viability assay.

KOSC-2 = format: functional, cell-based, Homo sapiens; details: Homo sapiens, KOSC-2;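 further: growth inhibition of KOSC-2 cells, read out by a cell viability assay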
Description: SANGER: Inhibition of human KOSC-2 cell growth in a cell viability assay.

MV4-11 = format: functional, cell-based, MV-4-11; details: Homo sapiens;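 further: cell viability readout measuring growth inhibition of human MV-4-11 cells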
Description: SANGER: Inhibition of human MV-4-11 cell growth in a cell viability assay.

TE-11 = format: functional, cell-based, Homo sapiens; details: Homo sapiens, TE-11;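 further: growth inhibition of human TE-11 cells, read out by a cell viability assay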
Description: SANGER: Inhibition of human TE-11 cell growth in a cell viability assay.

DBTRG-05MG = format: functional, cell-based, Homo sapiens; details: Homo sapiens, DBTRG-05MG;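 further: cell viability assay measuring growth inhibition of human DBTRG-05MG cells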
Description: SANGER: Inhibition of human DBTRG-05MG cell growth in a cell viability assay.

SAS = format: functional, cell-based, Homo sapiens; details: Homo sapiens, SAS;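 further: growth inhibition of SAS cells, read out with a cell viability assay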
Description: SANGER: Inhibition of human SAS cell growth in a cell viability assay.

PANC-08-13 = format: functional, cell-based, Homo sapiens; details: Homo sapiens, PANC-08-13;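 further: cell growth inhibition, measured with a cell viability assay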
Description: SANGER: Inhibition of human PANC-08-13 cell growth in a cell viability assay.

DMS-273 = format: functional, cell-based, Homo sapiens; details: Homo sapiens, DMS-273
Description: SANGER: Inhibition of human DMS-273 cell growth in a cell viability assay.

TE-6 = format: functional, cell-based, Homo sapiens; details: Homo sapiens, TE-6;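 further: growth inhibition of TE-6 cells, read out with a cell viability assay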
Description: SANGER: Inhibition of human TE-6 cell growth in a cell viability assay.

NCI-H2126 = format: functional, cell-based, Homo sapiens; details: Homo sapiens, NCI-H2126;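 further: growth inhibition of the cancer cell line, determined with a cell viability readout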
Description: SANGER: Inhibition of human NCI-H2126 cell growth in a cell viability assay.

MKN-45 = format: functional, cell-based, Homo sapiens; details: Homo sapiens, MKN-45;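 further: growth inhibition of human MKN-45 cells, measured with a cell viability assay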
Description: SANGER: Inhibition of human MKN45 cell growth in a cell viability assay.

DoTc2-4510 = format: functional, cell-based, Homo sapiens; details: Homo sapiens, DoTc2-4510
ES4 = format: functional, cell-based, Homo sapiens; details: Homo sapiens, ES4;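 further: growth inhibition of human ES4 cells, read out by a cell viability assay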
Description: SANGER: Inhibition of human ES4 cell growth in a cell viability assay.

COLO-829 = format: functional, cell-based, Homo sapiens; details: Homo sapiens, COLO-829
Description: SANGER: Inhibition of human COLO-829 cell growth in a cell viability assay.

HCC2157 = format: functional, cell-based; details: Homo sapiens;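 further: growth inhibition of the cancer cell line, read out as cell viability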
Description: SANGER: Inhibition of human HCC2157 cell growth in a cell viability assay.

For `CC(=O)O[C@@]12CO[C@@H]1C[C@H](O)[C@@]1(C)C(=O)[C@H](O)C3=C(C)[C@@H](OC(=O)[C@H](O)[C@@H](NC(=O)OC(C)(C)C)c4ccccc4)C[C@@](O)([C@@H](OC(=O)c4ccccc4)[C@H]21)C3(C)C` [DOCETAXEL], which IC50 (NB5) is on record?
Its IC50 is greater than 10 nM.

And the IC50 (SK-PN-DW)?
Its IC50 is 1.94 nM.

And the IC50 (Capan-2)?
The IC50 was greater than 10 nM.

What about the IC50 (NCI-H1563) of the same compound?
The IC50 was greater than 10 nM.

And the IC50 (ETK-1)?
Its IC50 is 0.558 nM.

What about the IC50 (NUGC-3) of the same compound?
The IC50 was 3.08 nM.

And the IC50 (D283 Med)?
Its IC50 is 6.24 nM.

And the IC50 (HH)?
Its IC50 is greater than 10 nM.

What about the IC50 (A3-KAW) of the same compound?
The IC50 was greater than 10 nM.

What about the IC50 (NB12) of the same compound?
The IC50 was greater than 10 nM.

What about the IC50 (A2780) of the same compound?
The IC50 was 3.35 nM.

And the IC50 (NCI-H520)?
Its IC50 is 3.72 nM.

And the IC50 (HCC1569)?
Its IC50 is greater than 10 nM.

What about the IC50 (SK-OV-3) of the same compound?
The IC50 was greater than 10 nM.

What about the IC50 (GOTO) of the same compound?
The IC50 was 2.27 nM.

What about the IC50 (SCC-4) of the same compound?
Its IC50 is 0.739 nM.

What about the IC50 (KYSE-450) of the same compound?
Its IC50 is 1.43 nM.

What about the IC50 (LK-2) of the same compound?
Its IC50 is 1.21 nM.

What about the IC50 (NB14) of the same compound?
Its IC50 is 0.26 nM.

What about the IC50 (Ramos-2G6-4C10) of the same compound?
The IC50 was greater than 10 nM.

And the IC50 (LB373-MEL-D)?
Its IC50 is greater than 10 nM.

And the IC50 (RH-1)?
Its IC50 is 0.386 nM.

And the IC50 (LB771-HNC)?
The IC50 was greater than 10 nM.

And the IC50 (EFO-27)?
The IC50 was 1.02 nM.

And the IC50 (Ca-Ski)?
The IC50 was 0.728 nM.

What about the IC50 (TYK-nu) of the same compound?
Its IC50 is 2.32 nM.

What about the IC50 (CAMA-1) of the same compound?
Its IC50 is 1.31 nM.

And the IC50 (ACN)?
Its IC50 is 6.44 nM.

What about the IC50 (BHT-101) of the same compound?
The IC50 was 9.8 nM.

And the IC50 (HCC70)?
Its IC50 is 2.77 nM.

And the IC50 (NH-12)?
The IC50 was greater than 10 nM.

What about the IC50 (ES5) of the same compound?
Its IC50 is 0.91 nM.

What about the IC50 (VMRC-RCZ) of the same compound?
The IC50 was 2.52 nM.

And the IC50 (BE-13)?
Its IC50 is 3.93 nM.

And the IC50 (WM-115)?
Its IC50 is 6.27 nM.

And the IC50 (U2OS)?
Its IC50 is 1.75 nM.

And the IC50 (TGBC24TKB)?
The IC50 was 7.81 nM.

And the IC50 (HC-1)?
The IC50 was 6.56 nM.

And the IC50 (KOSC-2)?
Its IC50 is 0.255 nM.

What about the IC50 (MV4-11) of the same compound?
Its IC50 is 1.74 nM.

And the IC50 (TE-11)?
The IC50 was 0.569 nM.

And the IC50 (DBTRG-05MG)?
The IC50 was 9.17 nM.

What about the IC50 (SAS) of the same compound?
Its IC50 is 1.34 nM.

What about the IC50 (PANC-08-13) of the same compound?
The IC50 was greater than 10 nM.

What about the IC50 (DMS-273) of the same compound?
Its IC50 is 0.674 nM.

What about the IC50 (TE-6) of the same compound?
Its IC50 is greater than 10 nM.

And the IC50 (NCI-H2126)?
Its IC50 is 7.73 nM.

And the IC50 (MKN-45)?
The IC50 was 4.53 nM.

And the IC50 (DoTc2-4510)?
Its IC50 is greater than 10 nM.

What about the IC50 (ES4) of the same compound?
The IC50 was 1.55 nM.

What about the IC50 (COLO-829) of the same compound?
Its IC50 is 7.25 nM.

What does the source list for `C=CCNC1=C2C[C@@H](C)C[C@H](OC)[C@H](O)[C@@H](C)/C=C(\C)[C@H](OC(N)=O)[C@@H](OC)/C=C\C=C(/C)C(=O)NC(=CC1=O)C2=O` [TANESPIMYCIN]?
IC50 (NB5): > 1000 nM; IC50 (SK-PN-DW): > 1000 nM; IC50 (Capan-2): 193 nM; IC50 (NCI-H1563): 949 nM; IC50 (ETK-1): 159 nM; IC50 (NUGC-3): 145 nM; IC50 (D283 Med): > 1000 nM; IC50 (HH): > 1000 nM; IC50 (A3-KAW): 342 nM; IC50 (NB12): > 1000 nM; IC50 (A2780): 25.3 nM; IC50 (NCI-H520): 387 nM; IC50 (HCC1569): > 1000 nM; IC50 (SK-OV-3): 176 nM; IC50 (GOTO): 452 nM; IC50 (SCC-4): 178 nM; IC50 (KYSE-450): 986 nM; IC50 (LK-2): 183 nM; IC50 (NB14): > 1000 nM; IC50 (Ramos-2G6-4C10): > 1000 nM; IC50 (LB373-MEL-D): > 1000 nM; IC50 (RH-1): > 1000 nM; IC50 (LB771-HNC): > 1000 nM; IC50 (EFO-27): 100 nM; IC50 (Ca-Ski): 267 nM; IC50 (TYK-nu): 39.9 nM; IC50 (CAMA-1): 129 nM; IC50 (ACN): 41.6 nM; IC50 (BHT-101): > 1000 nM; IC50 (HCC70): 921 nM; IC50 (NH-12): > 1000 nM; IC50 (ES5): > 1000 nM; IC50 (VMRC-RCZ): 138 nM; IC50 (BE-13): > 1000 nM; IC50 (WM-115): 37.6 nM; IC50 (U2OS): 172 nM; IC50 (TGBC24TKB): > 1000 nM; IC50 (KOSC-2): 177 nM; IC50 (MV4-11): 68 nM; IC50 (TE-11): 80 nM; IC50 (DBTRG-05MG): 581 nM; IC50 (SAS): 127 nM; IC50 (PANC-08-13): 532 nM; IC50 (DMS-273): 339 nM; IC50 (TE-6): 257 nM; IC50 (NCI-H2126): 568 nM; IC50 (MKN-45): 82.2 nM; IC50 (DoTc2-4510): 208 nM; IC50 (ES4): > 1000 nM; IC50 (HCC2157): 388 nM; IC50 (COLO-829): 120 nM
